Counter-ions that a name gives are not always drawn. Like-named read-outs stand apart in the source and are kept apart here. Marks after values point to notes of the source that are not given here.

The target of data set [1] is T1, D3R (Homo sapiens, UniProt P35462). On the set-up: expressed in transfected cells; host or cells: HEK293. As to conditions: cited from earlier work; for D2/D3: ratio of Ki values D2R/D3R; for D4/D3: ratio of Ki values D4R/D3R.
A further data set concerns the target T2, human D1R (Homo sapiens, UniProt P21728).
T2 construct: expressed in transfected cells; host or cells: mouse fibroblast cells (LhD1)
As to conditions: human cloned receptor; read-out: Ki ± SEM, D1R; cited from earlier work.

Another data set deals with T3, human 5-HT1AR (Homo sapiens, UniProt P08908).
T3 construct: expressed in transfected cells; host or cells: HeLa
T3 sequence (P08908 1-422): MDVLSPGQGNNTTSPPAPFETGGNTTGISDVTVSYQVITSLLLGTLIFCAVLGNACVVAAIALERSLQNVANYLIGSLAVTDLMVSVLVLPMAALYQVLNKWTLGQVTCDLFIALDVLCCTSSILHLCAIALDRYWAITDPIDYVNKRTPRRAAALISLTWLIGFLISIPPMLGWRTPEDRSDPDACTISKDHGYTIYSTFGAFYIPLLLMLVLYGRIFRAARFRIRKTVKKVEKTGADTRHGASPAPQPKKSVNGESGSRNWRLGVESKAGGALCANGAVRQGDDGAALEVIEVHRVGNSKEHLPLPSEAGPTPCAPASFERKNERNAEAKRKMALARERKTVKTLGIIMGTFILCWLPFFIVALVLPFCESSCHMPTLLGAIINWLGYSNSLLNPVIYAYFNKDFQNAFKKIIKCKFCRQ
The following applies: human cloned receptor; read-out: Ki ± SEM, 5-HT1AR; cited from earlier work.

In the next data set the target is D2R (Homo sapiens, UniProt P14416). Further details: expressed in transfected cells; host or cells: HEK293. The following applies: human cloned receptor; read-out: Ki ± SEM, D2R; cited from earlier work.
The target in data set [2] is T1, D3R. Briefly: Radioligand competition binding at human D3R ([3H]N-methylspiperone, HEK293 membranes). On the set-up: expressed in transfected cells; host or cells: HEK293. On the procedure:
The novel hybrid derivatives 3–11 were tested at hD2R, hD3R, or hD4R stably expressed in HEK293 cells by competition binding assays, using [^3H]N-methylspiperone as the radioligand, to evaluate their D2-like affinity and subtype selectivity, following the previously reported procedures.[41],[45],[46]
Binding at dopamine D2-like receptors was determined using previously described methods.[41],[45],[46] Membranes were prepared from HEK293 cells stably expressing human D2, D3, or D4, grown in a 50:50 mix of Dulbecco’s minimal essential medium (DMEM) and Ham’s F12 culture media, supplemented with 20 mM HEPES, 2 mM L-glutamine, 0.1 mM nonessential amino acids, 1× antibiotic/antimycotic, 10% heat-inactivated fetal bovine serum, and 200 μg/mL hygromycin (Life Technologies, Grand Island, NY) and kept in an incubator at 37 °C and 5% CO2. Upon reaching 80–90% confluency, the cells were harvested using premixed Earle’s Balanced Salt Solution (EBSS) with 5 μM EDTA (Life Technologies) and centrifuged at 3000 rpm for 10 min at 21 °C. The supernatant was removed, and the pellet was resuspended in 10 mL hypotonic lysis buffer (5 mM MgCl2, 5 mM Tris, pH 7.4 at 4 °C) and centrifuged at 20,000 rpm for 30 min at 4 °C. The pellet was then resuspended in fresh EBSS buffer made from 8.7 g/L Earle’s Balanced Salts without phenol red (US Biological, Salem, MA), 2.2 g/L sodium bicarbonate, pH to 7.4. A Bradford protein assay (Bio-Rad, Hercules, CA) was used to determine the protein concentration, and membranes were diluted to 500 μg/mL and stored at −80 °C for later use. Radioligand competition binding experiments were conducted using thawed membranes. Test compounds were freshly dissolved in 30% DMSO and 70% H2O to a stock concentration of 100 μM. To assist the solubilization of free-base compounds, 10 μL of glacial acetic acid was added along with DMSO. Each test compound was then diluted into 13 half-log serial dilutions using 30% DMSO vehicle; the final test concentrations ranged from 10 μM to 10 pM. The previously frozen membranes were diluted in fresh EBSS to a 100 μg/mL (for D2 or D3) or 200 μg/mL (D4) stock for binding. Radioligand competition experiments were conducted in glass tubes containing 300 μL of fresh EBSS buffer, 50 μL of diluted test compound, 100 μL of membranes (10 μg of total protein for D2 or D3 and 20 μg of total protein for D4), and 50 μL of [^3H]N-methylspiperone (0.4 nM final concentration; PerkinElmer). Nonspecific binding was determined using 10 μM butaclamol (Sigma-Aldrich, St. Louis, MO), and total binding was determined with the 30% DMSO vehicle. All compound dilutions were tested in triplicate and the reaction was incubated for 1 h at room temperature. The reaction was terminated by filtration through Whatman GF/B filters, presoaked for 1 h in 0.5% polyethylenimine, using a Brandel R48 filtering manifold (Brandel Instruments, Gaithersburg, MD). The filters were washed three times with 3 mL of ice-cold EBSS buffer and transferred to scintillation vials. CytoScint liquid scintillation cocktail (3 mL, MP Biomedicals, Solon, OH) was added, and vials were counted using a PerkinElmer Tri-Carb 2910 TR liquid scintillation counter (Waltham, MA).
For orientation: In a radioligand displacement assay an active substance lowers the binding of a labelled ligand.

The next data set addresses T4, 5-HT2CR (Homo sapiens, UniProt P28335).
T4 sequence (P28335 33-458): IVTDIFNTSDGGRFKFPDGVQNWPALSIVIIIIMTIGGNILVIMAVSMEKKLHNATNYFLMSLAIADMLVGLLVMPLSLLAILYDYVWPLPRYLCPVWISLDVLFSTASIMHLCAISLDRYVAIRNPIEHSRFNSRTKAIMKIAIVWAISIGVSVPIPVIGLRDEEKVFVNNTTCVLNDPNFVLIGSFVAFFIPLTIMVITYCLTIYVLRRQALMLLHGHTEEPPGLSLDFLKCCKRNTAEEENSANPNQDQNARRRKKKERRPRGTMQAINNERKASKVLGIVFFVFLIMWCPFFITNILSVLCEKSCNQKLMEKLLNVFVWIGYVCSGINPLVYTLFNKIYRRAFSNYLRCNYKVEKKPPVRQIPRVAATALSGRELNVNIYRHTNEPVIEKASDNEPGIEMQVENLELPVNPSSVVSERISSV
On the set-up: expressed in transfected cells; host or cells: HEK (HEK-h5HT2C). As to conditions: human cloned receptor; read-out: Ki ± SEM, 5-HT2CR; cited from earlier work.

In another data set the target is 5-HT2AR (Homo sapiens, UniProt P28223). Further details: expressed in transfected cells; host or cells: HEK (HEK-h5HT2A). As to conditions: human cloned receptor; read-out: Ki ± SEM, 5-HT2AR; cited from earlier work.
Sequence of 5-HT2AR (P28223 whole entry): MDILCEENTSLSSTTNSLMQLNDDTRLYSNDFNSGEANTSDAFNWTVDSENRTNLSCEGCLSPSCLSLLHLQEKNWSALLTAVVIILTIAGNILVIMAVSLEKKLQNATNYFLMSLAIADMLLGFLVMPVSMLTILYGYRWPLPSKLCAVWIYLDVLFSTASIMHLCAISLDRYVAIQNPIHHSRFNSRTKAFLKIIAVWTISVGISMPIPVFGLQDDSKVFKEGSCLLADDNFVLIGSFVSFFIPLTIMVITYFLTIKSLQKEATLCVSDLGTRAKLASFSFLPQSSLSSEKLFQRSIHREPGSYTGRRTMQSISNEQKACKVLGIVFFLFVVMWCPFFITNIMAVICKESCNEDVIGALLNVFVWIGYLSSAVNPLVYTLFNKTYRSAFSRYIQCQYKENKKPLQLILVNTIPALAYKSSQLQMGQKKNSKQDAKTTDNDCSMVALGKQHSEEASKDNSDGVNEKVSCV

T1 sequence (P35462 whole entry): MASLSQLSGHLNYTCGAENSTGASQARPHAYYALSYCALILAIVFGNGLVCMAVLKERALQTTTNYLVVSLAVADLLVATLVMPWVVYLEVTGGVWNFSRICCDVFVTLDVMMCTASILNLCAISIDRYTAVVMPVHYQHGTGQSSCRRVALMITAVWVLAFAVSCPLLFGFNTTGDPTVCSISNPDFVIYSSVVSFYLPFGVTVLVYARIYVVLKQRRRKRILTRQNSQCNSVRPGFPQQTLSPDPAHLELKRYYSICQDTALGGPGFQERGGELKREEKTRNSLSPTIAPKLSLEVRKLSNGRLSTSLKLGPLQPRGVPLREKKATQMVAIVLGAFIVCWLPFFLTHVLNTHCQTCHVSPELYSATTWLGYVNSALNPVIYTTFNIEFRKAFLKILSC
T2 sequence (P21728 whole entry): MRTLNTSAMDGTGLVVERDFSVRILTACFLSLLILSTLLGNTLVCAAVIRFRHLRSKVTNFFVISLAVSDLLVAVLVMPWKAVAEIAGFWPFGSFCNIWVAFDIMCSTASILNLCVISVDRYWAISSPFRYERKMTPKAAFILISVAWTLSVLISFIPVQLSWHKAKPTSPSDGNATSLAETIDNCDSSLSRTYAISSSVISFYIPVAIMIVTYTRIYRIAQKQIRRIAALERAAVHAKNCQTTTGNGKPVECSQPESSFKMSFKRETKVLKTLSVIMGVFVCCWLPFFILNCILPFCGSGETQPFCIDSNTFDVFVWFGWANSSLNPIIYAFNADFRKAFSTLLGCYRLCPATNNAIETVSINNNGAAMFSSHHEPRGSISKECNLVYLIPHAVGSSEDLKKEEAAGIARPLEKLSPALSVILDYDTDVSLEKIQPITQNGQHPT
Sequence of D2R (P14416 whole entry): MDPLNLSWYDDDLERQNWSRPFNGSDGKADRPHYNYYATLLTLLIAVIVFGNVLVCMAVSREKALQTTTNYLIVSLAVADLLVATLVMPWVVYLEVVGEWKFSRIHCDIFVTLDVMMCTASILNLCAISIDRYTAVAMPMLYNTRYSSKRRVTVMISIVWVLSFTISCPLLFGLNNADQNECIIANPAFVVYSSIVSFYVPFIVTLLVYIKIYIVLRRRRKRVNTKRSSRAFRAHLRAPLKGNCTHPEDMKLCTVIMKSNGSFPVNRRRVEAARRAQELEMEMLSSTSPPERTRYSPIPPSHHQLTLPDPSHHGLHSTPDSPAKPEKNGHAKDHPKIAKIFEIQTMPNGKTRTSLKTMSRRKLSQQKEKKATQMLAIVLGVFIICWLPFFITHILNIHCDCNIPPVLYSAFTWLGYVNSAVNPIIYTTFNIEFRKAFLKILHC

As to `O=C(NCCC(O)CN1CCN(c2cccc(Cl)c2Cl)CC1)C1COc2ccccc2O1` (single isomer, unassigned) (as salt: oxalate) [10a, N-(4-(4-(2,3-Dichlorophenyl)piperazin-1-yl)-3-hydroxybutyl)-2,3-dihydrobenzo[b][1,4]dioxine-2-carboxamide], the melting point (as a rule, the temperature of the solid-liquid transition) lay in the range of 88 to 89 °C.

`CN1CCN(C2=Nc3cc(Cl)ccc3Nc3ccccc32)CC1` [clozapine]: at D3R [1], the D2/D3 is 0.62 ^e and the D4/D3 is on record as 0.21 ^e.

In the case of `COc1ccccc1OCCNCC1COCC(c2ccccc2)(c2ccccc2)O1` (centres unmarked) [compound 1], the Ki (commonly a dissociation constant, usually derived from enzyme kinetics or from competition with a known ligand) at human D1R was 22.9 ± 3.1 nM.

As to `Oc1cccc(OCCNCC2COCC(c3ccccc3)(c3ccccc3)O2)c1` (centres unmarked) [compound 2], the Ki was 1.15 ± 0.03 nM at human 5-HT1AR; 123 ± 11 nM at human D1R; 3.16 ± 1 nM on D2R; 9.77 ± 0.501 µM at 5-HT2CR; 1.38 ± 0.07 nM on D3R [1] (human cloned receptor, read-out: Ki ± SEM, D3R); 1410 ± 224 nM on 5-HT2AR. Moreover, the D2/D3 at D3R [2] (ratio of Ki values D2R/D3R) is given as 2. Moreover, at D3R [2] (ratio of Ki values D4R/D3R), the D4/D3 was 8.

`Cc1cc2c(s1)Nc1ccccc1N=C2N1CCN(C)CC1` [olanzapine]: on D3R [1], the D2/D3 is 0.62 ^e and the D4/D3 is 0.51 ^e.

Source of the values: paper PMC8498988, “Scaffold Hybridization Strategy Leads to the Discovery of Dopamine D3 Receptor-Selective or Multitarget Bitopic Ligands Potentially Useful for Central Nervous System Disorders” (ACS Chemical Neuroscience, 2021).
